Data set [1] in a line: Solubility of NCA to good solvent and poor solvent, visual observation. The class given is physicochemical. The text has this: The method to determine that the solvent is a good solvent for NCA includes a method of adding a good solvent to NCA with stirring, followed by visual observation to confirm that the NCA has been dissolved without forming turbidity, but is not particularly limited if complete dissolution can be determined by the method.
The method to determine that the solvent is a poor solvent for NCA is not particularly limited if total insolubility can be confirmed, including a method of adding a poor solvent to NCA with stirring, followed by confirming that the NCA is not dissolved at all and turbidity is not observed by visual inspection.
On the other hand, in order to determine the solubility of NCA to n-hexane, which is a poor solvent, 0.2 g of the purified NCA shown by the structural formula (A) was tried to be dissolved in 2.0 g of n-hexane.
[…] On the other hand, as a method to determine the solubility to a poor solvent, 2.0 g of n-hexane was added to 0.2 g of each NCA after purification.

A short description of data set [2]: Long-term storage stability of NCA, purity by DSC. The class given is physicochemical. To be noted: DSC. As for the experimental part:
In Examples and Comparative Examples, the purity of each NCA was measured using differential scanning calorimeter (DSC) in accordance with 2.52 thermal analysis method of The Japanese Pharmacopoeia, 17th ed. (2.4.4. measurement of purity). The measurement was performed using Thermo plus EVO DSC8230 (manufactured by Rigalu Corporation) as a measurement apparatus with the sample amount of 1 mg at a temperature increasing rate of 1° C./minute. Incidentally, it is conceived that precise measurement cannot be guaranteed unless the purity is 98 mol % or more according to 2.52 thermal analysis method of The Japanese Pharmacopoeia, 17th ed. (2.4.4. measurement of purity).
Each purified NCA was evaluated for long-term storage stability. […] Regarding the conditions of −20±5° C., the results of purity measured by DSC at after a half year, after 1 year, and after 2 years are shown. Regarding the conditions of 0 to 5° C., the results of purity measured by DSC at after 1 month, 2 months, and a half year are shown. As a comparison, commercially available NCA shown by the general formula (A) (manufactured by Isochem), the purity of which is more than 98 mol % based on the DSC measurement, was evaluated and shown as Comparison 1. This NCA has a residual chlorine concentration of 0.030 mass % and belongs to a lot with extremely low residual chlorine concentration in commercially available NCAs.

The mark [3] stands for this setting: initial value of storage test at 0 to 5° C.
Where [4] appears, read: initial value of storage test at −20±5° C.

SMILES strings stand for the structures.

For the compound `CC(C)(C)OC(=O)CCC1CC(=O)OC1=O` (stereo not drawn) [(A)], in data set [1] (0.2 g purified NCA in 1.0 g ethyl acetate), the “solubility of NCA to ethyl acetate (good solvent), purified NCA” value is reported as “undissolved impurity was not determined visually”. Besides, the “solubility of NCA to n-hexane (poor solvent), purified NCA” value in data set [1] (0.2 g purified NCA in 2.0 g n-hexane) was “dissolution was not determined visually”. The “solubility of NCA to ethyl acetate (good solvent), NCA before purification” value in data set [1] (NCA before purification in ethyl acetate) is given as “undissolved impurities were determined visually”. This compound registered a Purity after purification in data set [2] (setting [3]) of 98.93 mol %. This compound yielded a Purity after purification in data set [2] (setting [4]) of 98.93 mol %. In addition, in data set [2] (storage at 0 to 5° C.), the “Purity after 1 month from purification” value is reported as 98.93 mol %, the “Purity after 2 months from purification” value amounted to 98.92 mol % and the “Purity after a half year from purification” value (“Purity after a half year” below) was determined as 98.90 mol %. In data set [2] (storage at −20±5° C.), the “Purity after 1 year from purification” value stood at 98.92 mol %, the “Purity after 2 years from purification” value came out at 98.90 mol % and the “Purity after a half year” value is 98.94 mol %.
The compound `O=C(CCC1NC(=O)OC1=O)OCc1ccccc1` (stereo not drawn) [(B)] showed a Purity after purification in data set [2] (setting [3]) of 99.40 mol %. In data set [2] (setting [4]), the Purity after purification is reported as 99.40 mol %. Moreover, in data set [2] (storage at 0 to 5° C.), the “Purity after 1 month from purification” value came to 99.39 mol %, the “Purity after 2 months from purification” value amounted to 99.41 mol % and the “Purity after a half year” value is on record as 99.41 mol %. In data set [2] (storage at −20±5° C.), the “Purity after 1 year from purification” value came out at 99.41 mol %, the “Purity after 2 years from purification” value was found to be 99.40 mol % and the “Purity after a half year” value is recorded as 99.40 mol %.
For `CC(C)(C)[Si](OCCC1NC(=O)OC1=O)(c1ccccc1)c1ccccc1` (stereo not drawn) [(I)], the Purity after purification in data set [2] (setting [3]) was found to be 99.35 mol %. The Purity after purification in data set [2] (setting [4]) came out at 99.35 mol %. Also, in data set [2] (storage at 0 to 5° C.), the “Purity after 1 month from purification” value was found to be 99.35 mol %, the “Purity after 2 months from purification” value is given as 99.36 mol % and the “Purity after a half year” value is 99.36 mol %. In data set [2] (storage at −20±5° C.), the “Purity after 1 year from purification” value is 99.36 mol %, the “Purity after 2 years from purification” value was 99.36 mol % and the “Purity after a half year” value was found to be 99.35 mol %.

The values above are taken from patent US10975042B2, “Method for purifying an amino acid-n-carboxy anhydride” (SHIN-ETSU CHEMICAL CO., LTD., priority 2018, dated 2021).
